Patent US11318157B2, “6-6 bicyclic aromatic ring substituted nucleoside analogues for use as PRMT5 inhibitors” (Janssen Pharmaceutica NV, priority 2015, dated 2022)
Like-named read-outs stand apart in the source and are kept apart here.

Experiments:
[1] = test system: nuclear symmetric Arginine dimethylation in A549 cells; assay: PD assay (assay 2): inhibition of nuclear symmetric Arginine dimethylation (SYM10 immunohistochemistry), 48 h; format: cell-based; settings: Homo sapiens
Procedure, shortened: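 Cells seeded at 400/well overnight, then treated 48 h at 37 °C, final DMSO 0.2%. Fixed and stained with SYM10 antibody plus Alexa 488 secondary, Hoechst and CellMask, then imaged on Opera. Normalized to DMSO (high) and 10 μM reference compound (low); averaged pIC50 reported.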

PRMT5-MEP50 enzyme [2] = biological target: T1, PRMT5-MEP50 enzyme (Homo sapiens, UniProt O14744); assay: In vitro assay 1b: high throughput mass spectrometer assay of SAH formation, 1.25 nM enzyme, 120 min; format: biochemical
T1 construct: One virus expresses full length human PRMT5 with Flag-tag at N-terminus; Flag (N); purchased Charles River (Argenta); host or cells: insect cells (Sf9), baculovirus co-infection
T1 sequence (O14744 whole entry): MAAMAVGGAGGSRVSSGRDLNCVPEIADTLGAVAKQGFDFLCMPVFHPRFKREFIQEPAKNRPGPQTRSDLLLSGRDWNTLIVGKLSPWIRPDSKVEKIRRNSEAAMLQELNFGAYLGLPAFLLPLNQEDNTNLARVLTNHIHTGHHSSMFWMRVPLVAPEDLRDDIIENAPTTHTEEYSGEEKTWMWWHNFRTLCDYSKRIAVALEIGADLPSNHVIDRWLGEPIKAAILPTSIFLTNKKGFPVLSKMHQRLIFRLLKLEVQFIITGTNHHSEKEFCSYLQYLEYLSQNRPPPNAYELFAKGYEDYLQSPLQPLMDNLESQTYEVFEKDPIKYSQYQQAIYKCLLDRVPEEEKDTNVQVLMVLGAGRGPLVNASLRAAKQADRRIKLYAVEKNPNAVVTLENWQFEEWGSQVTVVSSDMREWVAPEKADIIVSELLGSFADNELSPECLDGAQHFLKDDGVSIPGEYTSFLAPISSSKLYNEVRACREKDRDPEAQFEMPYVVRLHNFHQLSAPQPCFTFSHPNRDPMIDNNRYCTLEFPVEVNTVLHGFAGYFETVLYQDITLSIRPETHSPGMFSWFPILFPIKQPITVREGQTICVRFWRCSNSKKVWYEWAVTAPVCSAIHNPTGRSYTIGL
T1 sequence (Q9BQA1 whole entry partner): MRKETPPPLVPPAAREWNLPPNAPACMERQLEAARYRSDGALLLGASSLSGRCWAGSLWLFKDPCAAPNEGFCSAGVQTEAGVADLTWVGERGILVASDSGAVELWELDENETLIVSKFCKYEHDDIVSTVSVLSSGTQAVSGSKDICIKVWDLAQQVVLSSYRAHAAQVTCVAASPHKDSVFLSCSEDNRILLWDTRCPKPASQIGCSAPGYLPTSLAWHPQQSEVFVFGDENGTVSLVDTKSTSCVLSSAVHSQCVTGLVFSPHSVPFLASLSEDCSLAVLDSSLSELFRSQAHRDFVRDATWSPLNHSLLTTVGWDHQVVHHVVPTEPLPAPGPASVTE
Procedure, shortened: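 Flag-PRMT5/His-MEP50 complex from Sf9 cells, with 1 μM SAM and 0.3 μM full-length histone H2A in pH 8.5 Tris buffer, at 30 °C; 10 nM enzyme for 60 min (1a) or 1.25 nM for 120 min (1b). Formic acid-quenched SAH read by RapidFire MS/MS; 11-point IC50 with Hill fit.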

PRMT5-MEP50 enzyme [3] = biological target: T1, PRMT5-MEP50 enzyme; assay: In vitro assay 1a: high throughput mass spectrometer assay of SAH formation, 10 nM enzyme, 60 min; format: biochemical; settings: averaged values, PRMT5-MEP50, 10 nM enzyme
Description: Experimental Procedures In Vitro Assay (Assay 1a and 1b)
PRMT5-MEP50 enzyme was purchased from Charles River (Argenta). The enzyme complex was produced in insect cells (Sf9) infected simultaneously with two baculoviruses. One virus expresses full length human PRMT5 with Flag-tag at N-terminus, the second virus expresses full length MEP50 with His6-TEV cleavage at N-terminus. The protein was affinity purified using anti-Flag (M2) beads eluted with 3×FLAG peptide, followed by His-Select eluted with 0.5M imidazole. Eluted protein was then dialysed against tris-buffered saline (TBS) (pH 8.0) containing 20% glycerol and 3 mM dithiothreitol (DTT).
Full-length untagged human recombinant histone H2A (residues 1-130, Genbank Accession #NM_021052 MW=14.1 kDa) expressed in E. coli was purchased from Reaction Biology Corporation, Cat #HMT-11-146. Reagents used for making reaction buffer or stopping reaction were purchased including Tris base (Sigma Cat #T-1503), NaCl (Sigma Cat #RGF-3270), MgCl2 (Sigma Cat #M0250), DTTI (Invitrogen Cat #15508-013) and Formic Acid (Riedel deHaen, Cat #33015)
High Throughput Mass Spectrometer Assay
PRMT5 catalyzes the sequential methylations of the terminal nitrogen atoms on the guanidine groups of arginine residues within proteins using co-substrate S-adenosyl-L-methionine (AdoMet, SAM), forming mono-methyl (MMA), symmetric-dimethyl arginine (sDMA) and S-adenosyl-L-homocysteine (AdoHcy, SAH). The enzyme activity was determined by following the product SAH formation using high throughput mass spectrometry (Agilent Rapidfire 300 System coupled to a Sciex 4000 series QTrap® triple-quad MS/MS). The reaction buffer was 20 mM Tris-HCl, pH 8.5, 50 mM NaCl, 5 mM MgCl2 and 1 mM DTT. The reaction activity was stopped using 1% formic acid (final concentration).
The IC50 Studies were performed using eleven point dosing series made for each compound by serially diluted 1:2 in dimethyl sulfoxide (DMSO), with point 12 being a DMSO control. Compounds were first spotted to plates, and followed by addition of 2 μM SAM and 0.6 μM H2A (histone H2A) solution mixture. The same volume of enzyme solution was added to initiate the enzymatic reactions. The final concentrations of the reaction are at 1 μM SAM, 0.3 μM H2A and 10 nM enzyme (assay 1a) or 1.25 nM enzyme (assay 1b). The reaction was incubated at 30° C. for 60 minutes (min) when 10 nM enzyme was used and for 120 min when 1.25 nM enzyme was used. Subsequently, the reaction was quenched by addition of formic acid to a final concentration of 1%. The inhibitions of SAH formation in the presence of compounds were calculated as a percentage of the control relative to the uninhibited reaction as a function of inhibitor concentration. The data were fit as follows: Y=Bottom+(Top−Bottom)/(1+10^((log IC50−X)*h))
where IC50 is the inhibitor concentration (same unit as X) at 50% inhibition and h is the Hill slope. Y is percent of inhibition, X is log of compound concentration. Bottom and Top are the plateaus in same units as Y.

[4] = A549, averaged values, PD assay, A549 cells, symmetric Arginine dimethylation, read-out: pIC50 Assay 2 (converted)
[5] = averaged values, PRMT5-MEP50, 1.25 nM enzyme, 120 min, read-out: pIC50 Assay 1b (converted)
[6] = read-out: pIC50 Assay 1a (converted)

| Structure (SMILES) | IC50 [1, 4] [µM] | IC50 (PRMT5-MEP50 enzyme [2]; [5]) [µM] | IC50 (PRMT5-MEP50 enzyme [3]; [6]) [µM] | IC50 (PRMT5-MEP50 enzyme [2]) [µM] | IC50 (PRMT5-MEP50 enzyme [3]; pIC50 Assay 1a) [µM] | IC50 ([1]; A549, read-out: pIC50 Assay 2 (converted)) [µM] |
| --- | --- | --- | --- | --- | --- | --- |
| Nc1nc(Cl)nc2c1ccn2[C@@H]1O[C@H](COc2ccc3cc(Br)cnc3c2)[C@@H](O)[C@H]1O [Compound 42] | 0.316 | 0.126 | 0.0501 | – | – | – |
| Cc1ncnc2c1ccn2[C@@H]1O[C@H](COc2ccc3ccc(NCc4ccc(Cl)cc4)nc3c2)[C@@H](O)[C@H]1O [Compound 205] | 0.0501 | 0.0251 | 0.00316 | – | – | – |
| Nc1ncnc2c1ccn2[C@@H]1O[C@H](COc2ccc3cccnc3n2)[C@@H](O)[C@H]1O [Compound 17] | 7.94 | 1.58 | 1 | – | – | – |
| Nc1ncnc2c1ccn2[C@@H]1C[C@H](OCc2ccc3ncccc3c2)[C@@H](O)[C@H]1O [Compound 65] | 15.8 | 1 | 3.16 | – | – | – |
| Nc1ccc2ccc(OC[C@H]3O[C@@H](n4ccc5c(O)ncnc54)[C@H](O)[C@@H]3O)cc2n1 [Compound 208] | > 10 | 1.26 | 2.51 | – | – | – |
| Nc1ncnc2c1ccn2[C@@H]1O[C@H](COc2cc3ncc(Cl)cc3cc2Cl)[C@@H](O)[C@H]1O [Compound 100] | 0.794 | 0.2 | 0.126 | – | – | – |
| Nc1ncc2ccc(CC[C@H]3C[C@@H](n4ccc5c(Cl)ncnc54)[C@H](O)[C@@H]3O)cc2n1 [Compound 215] | 1.26 | 0.0398 | 0.00794 | – | – | – |
| Cc1cn([C@@H]2O[C@H](COc3ccc4cccnc4c3)[C@@H](O)[C@H]2O)c2ncnc(N)c12 [Compound 82] | 1.26 | 0.501 | 0.2 | – | – | – |
| Nc1ncnc2c1ccn2[C@@H]1C[C@H](CCc2ccc3ccc(NCC(F)F)nc3c2)[C@@H](O)[C@H]1O [Compound 75] | 0.00158 | 0.000501 | 0.000251 | – | – | – |
| O[C@@H]1[C@H](O)[C@@H](COc2ccc3ccc(NCc4ccc(Cl)cc4)nc3c2)O[C@H]1n1ccc2cncnc21 [Compound 173] | 0.0398 | 0.0158 | 0.002 | – | – | – |
| Nc1ncnc2c1ccn2[C@@H]1C[C@H](/C=C/c2ccc3cccnc3c2)[C@@H](O)[C@H]1O [Compound 55] | ~0.0513 | – | – | 0.0316 | 0.00794 | – |
| Cc1ncnc2c1ccn2[C@@H]1C[C@H](CCc2ccc3ccc(NCc4ccc(Cl)cc4)nc3c2)[C@@H](O)[C@H]1O [Compound 193] | 0.00316 | 0.00794 | 0.001 | – | – | – |
| Nc1ncnc2c1ccn2[C@@H]1O[C@H](COc2ccc3cccnc3c2Cl)[C@@H](O)[C@H]1O [Compound 41] | > 10 | 10 | 6.31 | – | – | – |
| CNc1ncnc2c1ccn2[C@@H]1O[C@H](COc2ccc3ccc(N)nc3c2)[C@@H](O)[C@H]1O [Compound 186] | 0.0794 | 0.0158 | 0.002 | – | – | – |
| Nc1ncnc2c1ccn2[C@@H]1O[C@H](COc2ccc3ccc(NCc4ccc(Cl)cc4)nc3c2)[C@@H](O)[C@H]1O [Compound 132] | 0.00251 | 0.00251 | 0.000794 | – | – | – |
| Nc1ncnc2c1ccn2[C@@H]1O[C@H](COc2cccc3ncccc23)[C@@H](O)[C@H]1O [Compound 5] | > 10 | 5.01 | 2 | – | – | – |
| COc1cc2c(Cl)c(C#N)cnc2cc1OC[C@H]1O[C@@H](n2ccc3c(N)ncnc32)[C@H](O)[C@@H]1O [Compound 30] | > 10 | 39.8 | > 10 | – | – | – |
| Nc1cnc2ccc(CC[C@H]3C[C@@H](n4ccc5c(Cl)ncnc54)[C@H](O)[C@@H]3O)cc2n1 [Compound 143] | 2.51 | 0.0501 | 0.01 | – | – | – |
| Nc1ncnc2c1ccn2[C@@H]1C[C@H](CCc2ccc3cc(Br)cnc3c2)[C@@H](O)[C@H]1O [Compound 129] | – | 0.0158 | 0.00251 | – | – | 0.0126 |
| CCc1cnc2cc(CC[C@H]3O[C@@H](n4ccc5c(N)ncnc54)[C@H](O)[C@@H]3O)ccc2c1 [Compound 122] | 0.0794 | 0.0501 | 0.0126 | – | – | – |
| Nc1ncnc2c1ccn2[C@@H]1O[C@H](COc2ccc3cc(Cl)cnc3c2Cl)[C@@H](O)[C@H]1O [Compound 101] | 2 | 0.794 | 1 | – | – | – |
| O[C@@H]1[C@H](O)[C@@H](CCc2ccc3ccc(NCC4CC4)nc3c2)O[C@H]1n1ccc2c(Cl)ncnc21 [Compound 138] | 0.126 | 0.0794 | 0.00794 | – | – | – |
| Nc1ncnc2c1ncn2[C@@H]1O[C@H](COc2cc3ncc(Br)cc3cc2Cl)[C@@H](O)[C@H]1O [Compound 219] | 7.94 | > 100 | 3.98 | – | – | – |
| Nc1ncnc2c1ccn2[C@@H]1O[C@H](COc2ccc3cc(C4CC4)cnc3c2)[C@@H](O)[C@H]1O [Compound 84] | 0.2 | 0.0794 | 0.0158 | – | – | – |
| N#Cc1cnc2cc(OC[C@H]3O[C@@H](n4ccc5c(N)ncnc54)[C@H](O)[C@@H]3O)ccc2c1N [Compound 29] | 15.8 | 1.26 | 0.501 | – | – | – |
| Cc1nc(N)c2ccn([C@@H]3O[C@H](COc4ccc5cc(Br)cnc5c4)[C@@H](O)[C@H]3O)c2n1 [Compound 43] | 0.316 | 0.2 | 0.0794 | – | – | – |
| Nc1ncnc2c1ncn2[C@@H]1O[C@H](COc2ccc3cc(Br)cnc3c2)[C@@H](O)[C@H]1O [Compound 220] | 2.51 | 0.501 | 0.316 | – | – | – |
| Cc1cc2c(N)ncnc2n1[C@@H]1O[C@H](COc2ccc3cc(Br)cnc3c2)[C@@H](O)[C@H]1O [Compound 108] | 0.0631 | 0.1 | 0.0398 | – | – | – |
| COc1cc2c(N)c(C#N)cnc2cc1OC[C@H]1O[C@@H](n2ccc3c(N)ncnc32)[C@H](O)[C@@H]1O [Compound 31] | > 20 | 3.98 | 3.16 | – | – | – |
